In patent US20240050398A1, “METHOD AGAINST SNAKE ENVENOMATION” (UBI PHARMA INC., priority 2022, published 2024):
Entries after “also recorded” stand apart in the source; their conditions may differ.

What was measured:
Assay type in all cases: in vivo
[1] = test system: venom of Protobothrops mucrosquamatus; assay: Efficacy against death caused by hemotoxic venom in ICR mice (flavonoid pre-mixed with venom, intradermal injection); details: venom 2.5 × LD50 per mouse, flavonoid 50 nmole per mouse
Method: The ICR mice were randomly divided into four groups, which included a pathological control group, two experimental groups (i.e., experimental groups 1 and 2), and one comparative group (n=7 mice in each group). Next, a respective one of the isorhamnetin, the quercetin, and the apigenin was mixed with a venom of Protobothrops mucrosquamatus in a volume ratio of 1:20, followed by incubation at 37° C. for 30 minutes, thereby forming a respective mixture solution. Afterward, the respective ICR mouse of each of the experimental groups 1 and 2 and the comparative group was intradermally injected with a suitable amount of the mixture solution as shown in Table 2 below. In addition, the respective ICR mouse in the pathological control group was intradermally injected with the venom of Protobothrops mucrosquamatus.
Subsequently, the survival number of the ICR mice in each group was observed and recorded at every hour until 10 hours after injection with the treating agent. The viability percentage (%) of the ICR mice in each group was calculated using the following Equation (1):
where A=viability percentage (%)
B=survival number of the ICR mice at every hour until 10 hours after injection with treating agent

venom of Naja nivea = assay: Efficacy of isorhamnetin in alleviating toxicity from neurotoxic venom in ICR mice (isorhamnetin injected 30 minutes after venom); details: 48th hour after injection; isorhamnetin 50 nmole per mouse 30 minutes after venom 2.5 × LD50
Method: To closely simulate conditions of an emergency treatment in which the subject was a victim of a venomous snake bite, in this application, the ICR mice were injected with the venom of Naja nivea and the isorhamnetin separately (with a time interval therebetween) instead of simultaneously (i.e., mixed in advance for injection).
First, the ICR mice were randomly divided into two groups, including a pathological control group (i.e., pathological control group 7) and an experimental group (i.e., experimental group 7) (n=7 mice in each group). Next, the respective ICR mouse in each group was intradermally injected with a suitable amount of the venom of Naja nivea (dose: 2.5×LD50 per mouse). After 30 minutes, the respective ICR mouse in the experimental group was intradermally injected again with a suitable amount of the isorhamnetin (dose: 50 nmole per mouse).
Subsequently, the survival number of the ICR mice in each group was observed and recorded at every hour until 48 hours after injection with the treating agent. The viability percentage (%) of the ICR mice in each group was calculated using the Equation (1).

[2] = test system: snake venom protein mixture (cardiotoxins and high molecular weight proteins from the venom of Naja atra); assay: Cutaneous ulceration caused by snake venom proteins in ICR mice, intradermal injection; details: for area of cutaneous ulcers compared to pathological control group (in words): 24th hour after injection, 50 nmole per mouse pre-mixed with 0.1 mL snake venom protein mixture, intradermal; for median effective dose (ED50) for reducing an area of a cutaneous ulcer: administered via intradermal injection
Description: (§1) For further study of the efficacy of isorhamnetin and quercetin in alleviating cutaneous ulceration caused by snake venom proteins, the applicants conducted experiments using a snake venom protein mixture containing snake venom proteins having a molecular weight of not lower than 43 kD and a cardiotoxin that might cause tissue necrosis, so as to avoid sudden death of the ICR mice due to other toxins that might have interfered with the observation.
(§2) First, cardiotoxins were isolated from a suitable amount of the venom of Naja atra with reference to the methods descried in SC Sue et al., (2001), Biochemistry, 40, 12782-12794. […] Next, the cardiotoxins and the high molecular weight proteins were mixed, so as to obtain a snake venom protein mixture containing 0.5 mg/mL of the cardiotoxins and 0.025 mg/mL of the high molecular weight proteins.
First, the ICR mice were randomly divided into three groups, including a pathological control group and two experimental groups (i.e., experimental groups 1 and 2) (n=7 mice in each group). Next, a respective one of the quercetin and isorhamnetin was mixed with a suitable amount of the snake venom protein mixture in a volume ratio of 1:20, followed by incubation at 37° C. for […], thereby forming a respective mixture solution. Afterward, the respective ICR mouse of the experimental groups 1 and 2 was intradermally injected with a suitable amount of the mixture solution as shown in Table 4 below. In addition, the respective ICR mouse in the pathological control group was intradermally injected with the snake venom protein mixture.
At the 24th hour after injection with the treating agent, cutaneous ulcers occurring in the ICR mice of each group were photographed and the area thereof was analyzed using ImageJ software.

[3] = test system: snake venom protein mixture (cardiotoxins and high molecular weight proteins from the venom of Naja atra); assay: Cutaneous ulceration caused by snake venom proteins in ICR mice, topical administration; details: via topical administration
Description: as §1, §2
For further evaluating whether or not a similar result, as that of the experimental group 2 in Section A of this example, could be obtained when the isorhamnetin was applied via topical administration immediately after a subject suffered from a venomous snake bite, the following experiments were conducted.
First, 3.1 mg of the isorhamnetin was mixed with 1 mL of petroleum jelly in a melted state at 45° C., thereby obtaining an isorhamnetin ointment. […]

Row | SMILES | effect against death caused by a hemotoxic venom (in words) [1] | survival (in words) (venom of Naja nivea) | area of cutaneous ulcers compared to pathological control group (in words) [2] | median effective dose (ED50) for reducing an area of a cutaneous ulcer [2] | median effective dose (ED50) for reducing an area of a cutaneous ulcer [3]
1 | O=c1cc(-c2ccc(O)cc2)oc2cc(O)cc(O)c12 [apigenin, reference compound] | may accelerate death | – | – | – | –
2 | COc1cc(-c2oc3cc(O)cc(O)c3c(=O)c2O)ccc1O [isorhamnetin] | effective against death caused by a hemotoxic venom | could even survive until the 48th hour | significantly reduced; also recorded: highest degree of reduction | 200 µM | 600 µM
3 | O=c1c(O)c(-c2ccc(O)c(O)c2)oc2cc(O)cc(O)c12 [quercetin] | effective against death caused by a hemotoxic venom | – | significantly reduced | 1200 µM | –
